In paper PMC9532703, “A novel small molecule RK-019 inhibits FGFR2-amplification gastric cancer cell proliferation and induces apoptosis in vitro and in vivo” (Frontiers in Pharmacology, 2022):

Assays:
Experiment in all cases: Kinase selectivity panel
Type in all cases: biochemical
JAK1(h) = biological target: T1, JAK1(h) (Homo sapiens, UniProt P23458); settings: read-out: Inhibition(%) @ 1 µM RK-019
T1 construct: purchased Eurofins Discovery Services (KinaseProfiler)
Method: (§1) Median-inhibitory concentration (IC50) and inhibition ratio of kinases by RK-019 was assessed by Eurofins Discovery Services (Dundee, United Kingdom) using the ATP-site competition binding assay in vitro. Firstly, gradient concentration of RK-019 against FGFRs, including FGFR1, FGFR2, FGFR3, and FGFR4, were tested. IC50 value was calculate by the GraphPad Prism software (v8.4.3, GraphPad Software, California, United States). Then, to measure the selectivity prolife of RK-019, a panel of 422 recombinant human kinases was screened at a concentration of 1 µM RK-019. Kinase MAP was drawn by webtools from Cell Signaling Technology, Inc. (www.cellsignal.com).

Arg(h) = biological target: T2, Arg(h) (Homo sapiens, UniProt P42684); settings: read-out: Inhibition(%) @ 1 µM RK-019
T2 construct: purchased Eurofins Discovery Services (KinaseProfiler)
Method: as §1

[1] = biological target: T3, PI3 Kinase (p110a(E545K)/p85a)(m) (Mus musculus, UniProt P42337, E545K); settings: read-out: Inhibition(%) @ 1 µM RK-019
T3 construct: purchased Eurofins Discovery Services (KinaseProfiler)
Method: as §1

GSK3β(h) = biological target: T4, GSK3β(h) (Homo sapiens, UniProt P49841); settings: read-out: Inhibition(%) @ 1 µM RK-019
T4 construct: purchased Eurofins Discovery Services (KinaseProfiler)
Method: as §1

[2] = biological target: T5, PI3 Kinase (p110a/p65a)(m) (Mus musculus, UniProt P42337); settings: read-out: Inhibition(%) @ 1 µM RK-019
T5 construct: purchased Eurofins Discovery Services (KinaseProfiler)
Method: as §1

JNK1α1(h) = biological target: T6, JNK1α1(h) (Homo sapiens, UniProt P45983); settings: read-out: Inhibition(%) @ 1 µM RK-019
T6 construct: purchased Eurofins Discovery Services (KinaseProfiler)
Method: as §1

MARK3(h) = biological target: T7, MARK3(h) (Homo sapiens, UniProt P27448); settings: read-out: Inhibition(%) @ 1 µM RK-019
T7 construct: purchased Eurofins Discovery Services (KinaseProfiler)
Method: as §1

ACK1(h) = biological target: T8, ACK1(h) (Homo sapiens, UniProt Q07912); settings: read-out: Inhibition(%) @ 1 µM RK-019
T8 construct: purchased Eurofins Discovery Services (KinaseProfiler)
Method: as §1

Pyk2(h) = biological target: T9, Pyk2(h) (Homo sapiens, UniProt Q14289); settings: read-out: Inhibition(%) @ 1 µM RK-019
T9 construct: purchased Eurofins Discovery Services (KinaseProfiler)
Method: as §1

Flt3(h) = biological target: T10, Flt3(h) (Homo sapiens, UniProt P36888); settings: read-out: Inhibition(%) @ 1 µM RK-019
T10 construct: purchased Eurofins Discovery Services (KinaseProfiler)
Method: as §1

mTOR(h) = biological target: T11, mTOR(h) (Homo sapiens, UniProt P42345); settings: read-out: Inhibition(%) @ 1 µM RK-019
T11 construct: purchased Eurofins Discovery Services (KinaseProfiler)
Method: as §1

MAPK1(h) = biological target: T12, MAPK1(h) (Homo sapiens, UniProt P27361); settings: read-out: Inhibition(%) @ 1 µM RK-019
T12 construct: purchased Eurofins Discovery Services (KinaseProfiler)
T12 sequence (P27361 whole entry): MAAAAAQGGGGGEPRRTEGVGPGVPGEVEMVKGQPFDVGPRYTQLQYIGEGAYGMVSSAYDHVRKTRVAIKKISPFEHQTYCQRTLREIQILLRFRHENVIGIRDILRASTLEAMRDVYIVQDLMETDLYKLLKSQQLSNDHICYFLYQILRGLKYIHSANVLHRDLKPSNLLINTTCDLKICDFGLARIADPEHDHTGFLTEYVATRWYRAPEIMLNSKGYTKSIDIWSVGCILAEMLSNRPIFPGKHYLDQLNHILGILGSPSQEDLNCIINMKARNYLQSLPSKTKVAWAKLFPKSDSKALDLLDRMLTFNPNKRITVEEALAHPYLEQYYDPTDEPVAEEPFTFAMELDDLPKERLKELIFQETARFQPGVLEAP
Method: as §1

PRK1(h) = biological target: T13, PRK1(h) (Homo sapiens, UniProt Q16512); settings: read-out: Inhibition(%) @ 1 µM RK-019
T13 construct: purchased Eurofins Discovery Services (KinaseProfiler)
T13 sequence (Q16512 whole entry): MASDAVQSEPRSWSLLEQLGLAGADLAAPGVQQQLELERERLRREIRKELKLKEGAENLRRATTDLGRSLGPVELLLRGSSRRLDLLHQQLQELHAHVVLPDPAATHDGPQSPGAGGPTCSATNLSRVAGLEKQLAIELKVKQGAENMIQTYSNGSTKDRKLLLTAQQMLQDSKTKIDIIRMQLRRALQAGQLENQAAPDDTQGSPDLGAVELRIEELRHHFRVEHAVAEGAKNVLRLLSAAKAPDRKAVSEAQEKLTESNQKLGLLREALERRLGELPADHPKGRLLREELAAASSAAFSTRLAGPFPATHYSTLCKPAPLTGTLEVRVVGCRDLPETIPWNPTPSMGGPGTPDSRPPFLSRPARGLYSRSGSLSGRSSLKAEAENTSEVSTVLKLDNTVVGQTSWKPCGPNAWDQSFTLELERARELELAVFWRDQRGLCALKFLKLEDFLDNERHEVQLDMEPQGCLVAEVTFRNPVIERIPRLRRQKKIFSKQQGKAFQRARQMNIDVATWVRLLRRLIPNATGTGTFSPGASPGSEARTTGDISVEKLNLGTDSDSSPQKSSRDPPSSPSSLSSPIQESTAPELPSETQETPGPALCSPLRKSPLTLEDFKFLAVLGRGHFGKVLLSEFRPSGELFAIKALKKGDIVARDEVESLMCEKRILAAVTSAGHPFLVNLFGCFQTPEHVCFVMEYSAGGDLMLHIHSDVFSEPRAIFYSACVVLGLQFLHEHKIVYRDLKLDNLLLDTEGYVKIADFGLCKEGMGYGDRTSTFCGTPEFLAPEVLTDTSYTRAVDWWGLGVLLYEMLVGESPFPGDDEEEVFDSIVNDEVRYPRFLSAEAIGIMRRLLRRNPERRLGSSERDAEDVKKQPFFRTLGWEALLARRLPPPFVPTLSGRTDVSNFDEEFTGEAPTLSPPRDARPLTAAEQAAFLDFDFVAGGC
Method: as §1

IR(h), activated = biological target: T14, IR(h), activated (Homo sapiens, UniProt P06213); settings: read-out: Inhibition(%) @ 1 µM RK-019
T14 construct: purchased Eurofins Discovery Services (KinaseProfiler)
Method: as §1

cKit(h) = biological target: T15, cKit(h) (Homo sapiens, UniProt P10721); settings: read-out: Inhibition(%) @ 1 µM RK-019
T15 construct: purchased Eurofins Discovery Services (KinaseProfiler)
Method: as §1

GRK5(h) = biological target: T16, GRK5(h) (Homo sapiens, UniProt P34947); settings: read-out: Inhibition(%) @ 1 µM RK-019
T16 construct: purchased Eurofins Discovery Services (KinaseProfiler)
Method: as §1

[3] = biological target: T17, PI3 Kinase (p110a(H1047R)/p85a)(h) (Homo sapiens, UniProt P42336, H1047R); settings: read-out: Inhibition(%) @ 1 µM RK-019
T17 construct: purchased Eurofins Discovery Services (KinaseProfiler)
T17 sequence (P42336 whole entry H1047R): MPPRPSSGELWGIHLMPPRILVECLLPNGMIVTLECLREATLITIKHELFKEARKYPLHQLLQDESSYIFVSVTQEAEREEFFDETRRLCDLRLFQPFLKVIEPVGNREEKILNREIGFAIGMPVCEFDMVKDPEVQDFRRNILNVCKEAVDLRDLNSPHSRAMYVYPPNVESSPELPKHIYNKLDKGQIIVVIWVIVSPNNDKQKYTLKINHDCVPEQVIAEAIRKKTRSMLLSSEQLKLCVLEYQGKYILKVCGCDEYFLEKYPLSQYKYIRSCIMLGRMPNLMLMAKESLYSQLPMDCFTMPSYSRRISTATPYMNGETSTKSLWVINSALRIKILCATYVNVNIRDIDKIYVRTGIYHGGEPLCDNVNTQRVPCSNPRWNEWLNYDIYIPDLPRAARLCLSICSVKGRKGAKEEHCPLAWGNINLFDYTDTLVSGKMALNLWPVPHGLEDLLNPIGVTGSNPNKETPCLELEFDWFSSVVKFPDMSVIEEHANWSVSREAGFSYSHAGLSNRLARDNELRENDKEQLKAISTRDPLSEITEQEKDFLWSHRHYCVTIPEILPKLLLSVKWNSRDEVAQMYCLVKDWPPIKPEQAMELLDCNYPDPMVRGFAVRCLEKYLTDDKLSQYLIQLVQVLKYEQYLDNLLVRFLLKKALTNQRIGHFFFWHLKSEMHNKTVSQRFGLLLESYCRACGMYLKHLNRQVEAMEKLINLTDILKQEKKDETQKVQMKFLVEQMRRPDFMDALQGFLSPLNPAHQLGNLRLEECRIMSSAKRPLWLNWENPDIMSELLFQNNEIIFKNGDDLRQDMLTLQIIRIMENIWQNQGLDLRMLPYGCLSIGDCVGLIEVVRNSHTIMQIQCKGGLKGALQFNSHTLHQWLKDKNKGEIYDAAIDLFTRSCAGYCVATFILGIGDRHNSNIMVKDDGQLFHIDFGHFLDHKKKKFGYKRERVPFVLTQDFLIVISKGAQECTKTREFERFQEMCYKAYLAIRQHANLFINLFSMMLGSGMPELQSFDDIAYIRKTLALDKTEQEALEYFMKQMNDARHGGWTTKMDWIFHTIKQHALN
T17 sequence (P27986 whole entry partner): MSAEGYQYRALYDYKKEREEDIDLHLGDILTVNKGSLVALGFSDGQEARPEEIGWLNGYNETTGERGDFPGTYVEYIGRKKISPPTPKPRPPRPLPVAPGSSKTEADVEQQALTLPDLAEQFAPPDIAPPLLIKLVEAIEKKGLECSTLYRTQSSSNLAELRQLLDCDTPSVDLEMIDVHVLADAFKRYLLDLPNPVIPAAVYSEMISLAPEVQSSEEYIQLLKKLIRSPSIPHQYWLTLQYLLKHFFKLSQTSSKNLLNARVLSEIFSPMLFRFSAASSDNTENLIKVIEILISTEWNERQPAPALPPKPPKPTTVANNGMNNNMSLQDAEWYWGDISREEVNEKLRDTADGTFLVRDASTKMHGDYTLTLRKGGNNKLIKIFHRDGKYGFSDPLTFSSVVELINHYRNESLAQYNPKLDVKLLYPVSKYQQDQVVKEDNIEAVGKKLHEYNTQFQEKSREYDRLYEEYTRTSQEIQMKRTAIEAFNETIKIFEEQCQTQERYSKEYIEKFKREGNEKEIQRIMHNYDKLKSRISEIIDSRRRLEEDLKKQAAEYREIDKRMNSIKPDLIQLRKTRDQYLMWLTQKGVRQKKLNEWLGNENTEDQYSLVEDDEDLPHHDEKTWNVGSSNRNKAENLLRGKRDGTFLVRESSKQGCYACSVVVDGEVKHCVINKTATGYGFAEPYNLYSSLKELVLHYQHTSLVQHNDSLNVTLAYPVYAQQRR
Method: as §1

SGK(h) = biological target: T18, SGK(h) (Homo sapiens, UniProt O00141); settings: read-out: Inhibition(%) @ 1 µM RK-019
T18 construct: purchased Eurofins Discovery Services (KinaseProfiler)
Method: as §1

FGFR3(h) = biological target: T19, FGFR3(h) (Homo sapiens, UniProt P22607)
T19 construct: purchased Eurofins Discovery Services (KinaseProfiler)
T19 sequence (P22607 23-806): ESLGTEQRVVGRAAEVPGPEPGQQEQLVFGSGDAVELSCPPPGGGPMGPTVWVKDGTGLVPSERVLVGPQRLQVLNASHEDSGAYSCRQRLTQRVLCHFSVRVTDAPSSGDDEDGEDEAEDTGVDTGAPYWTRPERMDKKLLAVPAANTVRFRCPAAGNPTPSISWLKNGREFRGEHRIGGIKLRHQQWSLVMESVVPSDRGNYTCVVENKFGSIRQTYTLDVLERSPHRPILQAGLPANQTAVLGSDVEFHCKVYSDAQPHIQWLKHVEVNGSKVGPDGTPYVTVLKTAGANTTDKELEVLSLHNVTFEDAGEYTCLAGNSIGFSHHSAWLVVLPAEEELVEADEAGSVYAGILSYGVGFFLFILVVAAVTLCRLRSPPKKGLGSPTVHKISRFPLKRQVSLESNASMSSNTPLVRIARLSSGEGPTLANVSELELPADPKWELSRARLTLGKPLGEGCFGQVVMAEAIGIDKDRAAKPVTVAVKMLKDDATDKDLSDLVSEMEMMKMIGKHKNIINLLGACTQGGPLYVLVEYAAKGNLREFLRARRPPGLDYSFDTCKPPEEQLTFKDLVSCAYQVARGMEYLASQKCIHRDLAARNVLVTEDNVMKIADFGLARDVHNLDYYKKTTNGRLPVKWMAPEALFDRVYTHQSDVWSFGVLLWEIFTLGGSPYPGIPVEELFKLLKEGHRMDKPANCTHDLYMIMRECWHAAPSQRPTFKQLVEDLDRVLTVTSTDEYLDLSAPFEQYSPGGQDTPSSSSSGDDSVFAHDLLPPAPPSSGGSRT
Method: as §1

LIMK2(h) = biological target: T20, LIMK2(h) (Homo sapiens, UniProt P53671); settings: read-out: Inhibition(%) @ 1 µM RK-019
T20 construct: purchased Eurofins Discovery Services (KinaseProfiler)
T20 sequence (P53671 whole entry): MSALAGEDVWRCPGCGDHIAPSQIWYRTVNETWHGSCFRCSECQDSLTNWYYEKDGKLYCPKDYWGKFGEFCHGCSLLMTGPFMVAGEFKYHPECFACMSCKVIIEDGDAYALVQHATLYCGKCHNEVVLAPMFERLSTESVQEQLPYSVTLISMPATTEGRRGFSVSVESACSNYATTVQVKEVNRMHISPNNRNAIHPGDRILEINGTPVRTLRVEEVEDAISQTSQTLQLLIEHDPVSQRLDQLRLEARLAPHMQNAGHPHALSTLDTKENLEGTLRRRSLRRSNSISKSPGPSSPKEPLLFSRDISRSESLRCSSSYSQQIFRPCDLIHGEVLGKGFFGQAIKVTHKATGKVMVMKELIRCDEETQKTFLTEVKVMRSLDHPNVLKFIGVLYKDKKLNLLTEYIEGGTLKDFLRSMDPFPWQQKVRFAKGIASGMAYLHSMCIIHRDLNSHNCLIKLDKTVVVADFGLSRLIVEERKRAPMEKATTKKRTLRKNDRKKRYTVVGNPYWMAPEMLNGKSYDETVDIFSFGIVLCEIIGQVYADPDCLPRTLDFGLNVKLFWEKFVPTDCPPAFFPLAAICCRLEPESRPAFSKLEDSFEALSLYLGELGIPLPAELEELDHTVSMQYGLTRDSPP
Method: as §1

HIPK1(h) = biological target: T21, HIPK1(h) (Homo sapiens, UniProt Q86Z02); settings: read-out: Inhibition(%) @ 1 µM RK-019
T21 construct: purchased Eurofins Discovery Services (KinaseProfiler)
Method: as §1

PKCβI(h) = biological target: T22, PKCβI(h) (Homo sapiens, UniProt P05771); settings: read-out: Inhibition(%) @ 1 µM RK-019
T22 construct: purchased Eurofins Discovery Services (KinaseProfiler)
Method: as §1

NEK6(h) = biological target: T23, NEK6(h) (Homo sapiens, UniProt Q9HC98); settings: read-out: Inhibition(%) @ 1 µM RK-019
T23 construct: purchased Eurofins Discovery Services (KinaseProfiler)
Method: as §1

CDKL2(h) = biological target: T24, CDKL2(h) (Homo sapiens, UniProt Q92772); settings: read-out: Inhibition(%) @ 1 µM RK-019
T24 construct: purchased Eurofins Discovery Services (KinaseProfiler)
Method: as §1

NEK2(h) = biological target: T25, NEK2(h) (Homo sapiens, UniProt P51955); settings: read-out: Inhibition(%) @ 1 µM RK-019
T25 construct: purchased Eurofins Discovery Services (KinaseProfiler)
Method: as §1

GRK3(h) = biological target: T26, GRK3(h) (Homo sapiens, UniProt P35626); settings: read-out: Inhibition(%) @ 1 µM RK-019
T26 construct: purchased Eurofins Discovery Services (KinaseProfiler)
Method: as §1

STK25(h) = biological target: T27, STK25(h) (Homo sapiens, UniProt O00506); settings: read-out: Inhibition(%) @ 1 µM RK-019
T27 construct: purchased Eurofins Discovery Services (KinaseProfiler)
Method: as §1

PAK2(h) = biological target: T28, PAK2(h) (Homo sapiens, UniProt Q13177); settings: read-out: Inhibition(%) @ 1 µM RK-019
T28 construct: purchased Eurofins Discovery Services (KinaseProfiler)
Method: as §1

EGFR(L861Q)(h) = biological target: T29, EGFR(L861Q)(h) (Homo sapiens, UniProt P00533, L861Q); settings: read-out: Inhibition(%) @ 1 µM RK-019
T29 construct: purchased Eurofins Discovery Services (KinaseProfiler)
Method: as §1

[4] = biological target: T30, PI3 Kinase (p110a/p85a)(h) (Homo sapiens, UniProt P42336); settings: read-out: Inhibition(%) @ 1 µM RK-019
T30 construct: purchased Eurofins Discovery Services (KinaseProfiler)
T30 sequence (P42336 whole entry): as the sequence (P42336 whole entry H1047R) above, with R1047H counted along it
T30 sequence (P27986 whole entry partner): as the sequence (P27986 whole entry partner) above
Method: as §1

Pim-2(h) = biological target: T31, Pim-2(h) (Homo sapiens, UniProt Q9P1W9); settings: read-out: Inhibition(%) @ 1 µM RK-019
T31 construct: purchased Eurofins Discovery Services (KinaseProfiler)
Method: as §1

TSSK2(h) = biological target: T32, TSSK2(h) (Homo sapiens, UniProt Q96PF2); settings: read-out: Inhibition(%) @ 1 µM RK-019
T32 construct: purchased Eurofins Discovery Services (KinaseProfiler)
T32 sequence (Q96PF2 whole entry): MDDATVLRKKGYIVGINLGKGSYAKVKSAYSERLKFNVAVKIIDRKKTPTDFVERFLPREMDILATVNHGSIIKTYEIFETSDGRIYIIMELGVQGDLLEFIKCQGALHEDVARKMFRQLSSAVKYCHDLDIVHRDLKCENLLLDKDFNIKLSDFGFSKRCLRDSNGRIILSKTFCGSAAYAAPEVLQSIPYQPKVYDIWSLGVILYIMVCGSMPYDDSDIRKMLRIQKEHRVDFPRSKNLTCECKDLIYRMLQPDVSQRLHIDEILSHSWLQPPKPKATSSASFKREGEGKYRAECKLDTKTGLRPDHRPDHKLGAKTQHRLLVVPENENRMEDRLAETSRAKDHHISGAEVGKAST
Method: as §1

CDK3/cyclinE(h) = biological target: T33, CDK3/cyclinE(h) (Homo sapiens, UniProt Q00526); settings: read-out: Inhibition(%) @ 1 µM RK-019
T33 construct: purchased Eurofins Discovery Services (KinaseProfiler)
Method: as §1

RIPK1(h) = biological target: T34, RIPK1(h) (Homo sapiens, UniProt Q13546); settings: read-out: Inhibition(%) @ 1 µM RK-019
T34 construct: purchased Eurofins Discovery Services (KinaseProfiler)
Method: as §1

CDKL1(h) = biological target: T35, CDKL1(h) (Homo sapiens, UniProt Q00532); settings: read-out: Inhibition(%) @ 1 µM RK-019
T35 construct: purchased Eurofins Discovery Services (KinaseProfiler)
Method: as §1

EphA7(h) = biological target: T36, EphA7(h) (Homo sapiens, UniProt Q15375); settings: read-out: Inhibition(%) @ 1 µM RK-019
T36 construct: purchased Eurofins Discovery Services (KinaseProfiler)
Method: as §1

With COc1cc(OC)cc(N(CCN[C@H](C)CO)c2ccc3ncc(-c4cnn(C)c4)c(=O)n3c2)c1 [RK-019, (R)-7-((3,5-dimethoxyphenyl) (2-((1-hydroxypropan-2-yl)amino)ethyl)amino)-3-(1-methyl-1H-pyrazol-4-yl)-4H-pyrido [1,2-a]pyrimidin-4-one] the activity at 1 µM (JAK1(h)) was 120%, the activity at 1 µM (Arg(h)) was 86% and the activity at 1 µM [1] was 102%. For the same molecule, the activity at 1 µM (GSK3β(h)) was 96%, the activity at 1 µM [2] was 100% and the activity at 1 µM (JNK1α1(h)) was 96%. The activity at 1 µM (MARK3(h)) was 80%, the activity at 1 µM (ACK1(h)) was 104% and the activity at 1 µM (Pyk2(h)) was 112%. For the same molecule, the activity at 1 µM (Flt3(h)) was 123%, the activity at 1 µM (mTOR(h)) was 105% and the activity at 1 µM (MAPK1(h)) was 116%. It also gave an activity at 1 µM (PRK1(h)) of 105%, an activity at 1 µM (IR(h), activated) of 95% and an activity at 1 µM (cKit(h)) of 73%. The activity at 1 µM (GRK5(h)) was 135%, the activity at 1 µM [3] was 100% and the activity at 1 µM (SGK(h)) was 104%. The activity at 1 µM (FGFR3(h); FGFR3(h), read-out: Inhibition(%) @ 1 µM RK-019) was -3%, the inhibition at 1 µM (FGFR3(h); FGFR3, 1 µM, read-out: inhibition (hit in panel)) was over 90% and the activity at 1 µM (LIMK2(h)) was 98%. It also gave an activity at 1 µM (HIPK1(h)) of 93%, an activity at 1 µM (PKCβI(h)) of 102% and an activity at 1 µM (NEK6(h)) of 97%. The activity at 1 µM (CDKL2(h)) was 110%, the activity at 1 µM (NEK2(h)) was 80% and the activity at 1 µM (GRK3(h)) was 123%. The activity at 1 µM (STK25(h)) was 66%, the activity at 1 µM (PAK2(h)) was 98% and the activity at 1 µM (EGFR(L861Q)(h)) was 103%. The activity at 1 µM [4] was 101%, the activity at 1 µM (Pim-2(h)) was 98% and the activity at 1 µM (TSSK2(h)) was 91%. The activity at 1 µM (CDK3/cyclinE(h)) was 90%, the activity at 1 µM (RIPK1(h)) was 85% and the activity at 1 µM (CDKL1(h)) was 97%. For the same molecule, the activity at 1 µM (EphA7(h)) was 108%.
